Values after ≈ are worked out from the molar mass of the structure shown. Read-outs that look alike come from different tables or passages of the source.
Assays:
Format in all cases: cell-based
Pasteurella hemolytica = assay: MIC (minimum inhibitory concentration), agar dilution, Pasteurella hemolytica; settings: Pasteurella, read-out: MIC
Protocol: (§1) Stock solution of each test antibiotic compound were prepared to have a concentration of 2 mg. of the test compound per milliliter in sterile water of 0.1M ammonium acetate solution. The amount of each compound used was adjusted for base compound activity as calculated from the purity data for the selected batch of compound.
(§2) The dilution procedure described by Washington and Sutter [Manual of Clinical Microbiology, 3rd, Edit. (Lennett, E. H. et al, Eds.), pp. 453-458 (1980), American Society for Microbiology, Washington, D.C.] was modified so that serial concentrations of 128 to 0.0625 microgram/ml. in sterile water was obtained. Then 1.5 ml. aliquots of these test antibiotic dilution mixtures are added to 13.5 molten (50° C.) Mueller-Hinton agar. Each resulting mixture is poured into 15×100 mm, sterile Petri plates and allowed to dry at room temperature overnight.
(§3) Test bacterial cultures are maintained at -70° C. on glass beads. [See R. J. Yancey, Jr. et al, Amer. Jr. of Vet. Research, 48, No. 7, pp. 1050-1053, (1987)]. At least one bacteria-laden bead per culture is dropped into one ml. of brain heart infusion (BHI) broth for overnight culture at 37° C. in 5% V/V carbon dioxide in air atmosphere.
(§4) On the data of assay, 2 to 8 drops of the bacterial broth cultures are transferred to fresh BHI broth (1 ml.) and the mixture is incubated for 4 to 6 hours at 37° C. in a 5% V/V carbon dioxide in air atmosphere. The resulting cultures are then diluted to match a 0.5 MacFarland standard and further diluted 1:20 V/V with sterile saline solution.
(§5) A 0.001 ml. drop of the resulting mixture, containing approximately 10^3 to 10^4 colony forming units (CFU) of each test bacteria organism, is dispensed onto the surface of the test antibiotic compound test plates with a Steer's type replicator. The resulting innoculated plates are incubated 16 to 18 hours at 37° C. with a carbon dioxide atmosphere.
as §1, with “Stock solutions” for “Stock solution”
as §2, with “mm.” for “mm,”
as §2, with “for Microbiology.” for “for Microbiology,”, “15×100 mm.” for “15×100 mm,”
as §3, with “culture” for “cultures”
(§6) On the day of assay, 2 to 8 drops of the bacterial broth cultures are transferred to fresh BHI broth (1 ml.) and the mixture is incubated for 4 to 6 hours at 37° C. in a 5% V/V carbon dioxide in air atmosphere. […]

Pasteurella multocida = assay: MIC, agar dilution, Pasteurella multocida; settings: Pasteurella multocida; strain UC9581; read-out: MIC
Protocol: as §1, §2, §3, §4, §5
as §1, with “Stock solutions” for “Stock solution”
as §2, with “mm.” for “mm,”
as §2, with “for Microbiology.” for “for Microbiology,”, “15×100 mm.” for “15×100 mm,”
as §3, with “culture” for “cultures”
as §6

Escherichia coli = assay: MIC, agar dilution, Escherichia coli; settings: Escherichia coli, read-out: MIC
Protocol: as §1, §2, §3, §4, §5
as §1, with “Stock solutions” for “Stock solution”
as §2, with “mm.” for “mm,”
as §2, with “for Microbiology.” for “for Microbiology,”, “15×100 mm.” for “15×100 mm,”
as §3, with “culture” for “cultures”
as §6

Salmonella choleraesuis = assay: MIC, agar dilution, Salmonella choleraesuis; settings: Salmonella enterica, read-out: MIC
Protocol: as §1, §2, §3, §4, §5
as §1, with “Stock solutions” for “Stock solution”
as §2, with “mm.” for “mm,”
as §2, with “for Microbiology.” for “for Microbiology,”, “15×100 mm.” for “15×100 mm,”
as §3, with “culture” for “cultures”
as §6

Salmonella typhimurium = assay: MIC, agar dilution, Salmonella typhimurium; settings: Salmonella enterica, read-out: MIC
Protocol: as §1, §2, §3, §4, §5
as §1, with “Stock solutions” for “Stock solution”
as §2, with “mm.” for “mm,”
as §2, with “for Microbiology.” for “for Microbiology,”, “15×100 mm.” for “15×100 mm,”
as §3, with “culture” for “cultures”
as §6

[1] = test system: Bordetella bronchiseptica; assay: MIC, agar dilution, Bordetella bronchiseptica; settings: Bordetella bronchiseptica; strain UC6313; read-out: MIC
Protocol: as §1, §2, §3, §4, §5
as §1, with “Stock solutions” for “Stock solution”
as §2, with “mm.” for “mm,”
as §2, with “for Microbiology.” for “for Microbiology,”, “15×100 mm.” for “15×100 mm,”
as §3, with “culture” for “cultures”
as §6

Pseudomonas aeruginosa = assay: MIC, agar dilution, Pseudomonas aeruginosa; settings: Pseudomonas aeruginosa, ATCC27853; strain ATCC 27853; read-out: MIC
Protocol: as §1, §2, §3, §4, §5
as §1, with “Stock solutions” for “Stock solution”
as §2, with “mm.” for “mm,”
as §2, with “for Microbiology.” for “for Microbiology,”, “15×100 mm.” for “15×100 mm,”
as §3, with “culture” for “cultures”
as §6

Staphylococcus aureus = assay: MIC, agar dilution, Staphylococcus aureus; settings: Staphylococcus aureus, read-out: MIC
Protocol: as §1, §2, §3, §4, §5
as §1, with “Stock solutions” for “Stock solution”
as §2, with “mm.” for “mm,”
as §2, with “for Microbiology.” for “for Microbiology,”, “15×100 mm.” for “15×100 mm,”
as §3, with “culture” for “cultures”
as §6

Streptococcus agalactiae = assay: MIC, agar dilution, Streptococcus agalactiae; settings: Streptococcus agalactiae, read-out: MIC
Protocol: as §1, §2, §3, §4, §5
as §1, with “Stock solutions” for “Stock solution”
as §2, with “mm.” for “mm,”
as §2, with “for Microbiology.” for “for Microbiology,”, “15×100 mm.” for “15×100 mm,”
as §3, with “culture” for “cultures”
as §6

Streptococcus bovis = assay: MIC, agar dilution, Streptococcus bovis; settings: Streptococcus equinus; strain UC6281; read-out: MIC
Protocol: as §1, §2, §3, §4, §5
as §1, with “Stock solutions” for “Stock solution”
as §2, with “mm.” for “mm,”
as §2, with “for Microbiology.” for “for Microbiology,”, “15×100 mm.” for “15×100 mm,”
as §3, with “culture” for “cultures”
as §6

[2] = test system: Streptococcus dysgalactiae; assay: MIC, agar dilution, Streptococcus dysgalactiae; settings: Streptococcus dysgalactiae; strain UC251; read-out: MIC
Protocol: as §1, §2, §3, §4, §5
as §1, with “Stock solutions” for “Stock solution”
as §2, with “mm.” for “mm,”
as §2, with “for Microbiology.” for “for Microbiology,”, “15×100 mm.” for “15×100 mm,”
as §3, with “culture” for “cultures”
as §6

Enterococcus faecium = assay: MIC, agar dilution, Enterococcus faecium; settings: Enterococcus faecium; strain UC241; read-out: MIC
Protocol: as §1, with “Stock solutions” for “Stock solution”
as §2, §3, §4, §5, §1
as §2, with “mm.” for “mm,”
as §2, with “for Microbiology.” for “for Microbiology,”, “15×100 mm.” for “15×100 mm,”
as §3, with “culture” for “cultures”
as §6

Enterococcus faecalis = assay: MIC, agar dilution, Enterococcus faecalis; settings: Enterococcus faecalis; strain UC694; read-out: MIC
Protocol: as §1, with “Stock solutions” for “Stock solution”
as §2, §3, §4, §5, §1
as §2, with “mm.” for “mm,”
as §2, with “for Microbiology.” for “for Microbiology,”, “15×100 mm.” for “15×100 mm,”
as §3, with “culture” for “cultures”
as §6

Streptococcus suis = assay: MIC, agar dilution, Streptococcus suis; settings: Streptococcus suis; strain 650-2; read-out: MIC
Protocol: as §1, §2, §3, §4, §5
as §1, with “Stock solutions” for “Stock solution”
as §2, with “mm.” for “mm,”
as §2, with “for Microbiology.” for “for Microbiology,”, “15×100 mm.” for “15×100 mm,”
as §3, with “culture” for “cultures”
as §6

Streptococcus uberis = assay: MIC, agar dilution, Streptococcus uberis; settings: Streptococcus uberis, read-out: MIC
Protocol: as §1, §2, §3, §4, §5
as §1, with “Stock solutions” for “Stock solution”
as §2, with “mm.” for “mm,”
as §2, with “for Microbiology.” for “for Microbiology,”, “15×100 mm.” for “15×100 mm,”
as §3, with “culture” for “cultures”
as §6

Corynebacterium pyogenes = assay: MIC, agar dilution, Corynebacterium pyogenes; settings: strain 213-2; read-out: MIC
Protocol: as §1, §2, §3, §4, §5
as §1, with “Stock solutions” for “Stock solution”
as §2, with “mm.” for “mm,”
as §2, with “for Microbiology.” for “for Microbiology,”, “15×100 mm.” for “15×100 mm,”
as §3, with “culture” for “cultures”
as §6

Micrococcus luteus = assay: MIC, agar dilution, Micrococcus luteus; settings: Micrococcus luteus; strain UC130; read-out: MIC
Protocol: as §1, §2, §3, §4, §5
as §1, with “Stock solutions” for “Stock solution”
as §2, with “mm.” for “mm,”
as §2, with “for Microbiology.” for “for Microbiology,”, “15×100 mm.” for “15×100 mm,”
as §3, with “culture” for “cultures”
as §6

MIC (Pasteurella multocida): ≤ 0.06 µg/mL
MIC (Escherichia coli; strain UC3784): 2 µg/mL (≈ 3.5 µM)
MIC (Escherichia coli; strain UC6720): 4 µg/mL (≈ 6.99 µM)
MIC (Escherichia coli; strain UC9670): 8 µg/mL (≈ 14 µM)
MIC (Salmonella typhimurium; TYPHIMURIUM / UC6162, strain UC6162): 4 µg/mL (≈ 6.99 µM)
MIC (Salmonella typhimurium; TYPHIMURIUM / UC6164, strain UC6164): 4 µg/mL (≈ 6.99 µM)
MIC [1]: > 32 µg/mL
MIC (Pseudomonas aeruginosa): > 32 µg/mL
MIC (Staphylococcus aureus; strain UC6093): 4 µg/mL (≈ 6.99 µM)
MIC (Staphylococcus aureus; strain UC6097): 2 µg/mL (≈ 3.5 µM)
MIC (Staphylococcus aureus; strain UC9203): 2 µg/mL (≈ 3.5 µM)
MIC (Streptococcus agalactiae; strain UC3947): ≤ 0.06 µg/mL
MIC (Streptococcus agalactiae; strain UC6892): ≤ 0.06 µg/mL
MIC (Streptococcus bovis): ≤ 0.06 µg/mL
MIC [2]: ≤ 0.06 µg/mL
MIC (Enterococcus faecium): > 32 µg/mL
MIC (Enterococcus faecalis): > 32 µg/mL
MIC (Streptococcus suis): ≤ 0.06 µg/mL
MIC (Streptococcus uberis; strain UC3946): ≤ 0.06 µg/mL
MIC (Streptococcus uberis; strain UC6159): 4 µg/mL (≈ 6.99 µM)
MIC (Corynebacterium pyogenes): ≤ 0.06 µg/mL
MIC (Micrococcus luteus): ≤ 0.06 µg/mL
Compound: CO/N=C(\C(=O)N[C@@H]1C(=O)N2C(C(=O)O)=C(CSSc3ccc(Cl)cc3)CS[C@H]12)c1csc(N)n1 [Example 17]
MIC (Pasteurella hemolytica; strain UC6531): ≤ 0.06 µg/mL
MIC (Pasteurella hemolytica; strain UC6532): 0.13 µg/mL (≈ 0.227 µM)
MIC (Pasteurella hemolytica; strain UC9582): 0.13 µg/mL (≈ 0.227 µM)
MIC (Salmonella choleraesuis; CHOLERAESUIS / UC6073, strain UC6073): 8 µg/mL (≈ 14 µM)
MIC (Salmonella choleraesuis; CHOLERAESUIS / UC6077, strain UC6077): 8 µg/mL (≈ 14 µM)

Source: patent publication US5134137A, “Cephalosporin antibiotics” (The Upjohn Company, priority 1990, dated 1992)
